Test results taken from patent publication US9334269B2, “Carboxamides as inhibitors of voltage-gated sodium channels” (AMGEN INC., priority 2010, dated 2016).

Molecular target: T1, human Nav1.7 (hNav1.7) (Homo sapiens, UniProt Q15858)
T1 construct: expressed in transfected cells
Test: hNav1.7 whole-cell patch-clamp electrophysiology (automated PatchXpress 7000A or manual) in stably expressing 293 cells
Type: cell-based
Procedure: Compounds were tested on human Nav1.7 (hNav1.7) expressed stably in 293 cells, which have no endogenous sodium channels. Two forms of whole-cell patch-clamp assays were used. In both, peak current through Nav1.7 was evoked by a depolarizing voltage pulse, and currents were monitored as a function of time in response to exposure to several different concentrations of drug. Automated electrophysiology uses the PatchXpress 7000A system. Up to sixteen cells at a time were voltage-clamped in parallel, and the steady-state voltage dependence of inactivation was determined experimentally for each cell. For each cell, fractional inactivation was set at 20%, and peak current through Nav1.7 as a function of time was measured in response to increasing concentrations of test compound. Manual electrophysiology refers to conventional whole-cell patch-clamping (Hamill et al., 1981). After formation of the whole-cell clamp, cells were lifted off the bottom of the dish with the patch pipette and positioned directly in front of an array of glass microperfusion tubes each with internal diameter about 250 microns, with individual compound concentrations flowing from each tube. Current as a function of time in response to increasing drug concentrations was measured with Nav1.7 fully in the resting state (holding voltage set to −140 mV) and on the same cells with the holding voltage set to produce about 20% inactivation. Compounds were not applied for a prespecified time, but for as long as required to achieve a stable level of block. For both forms of electrophysiology, offline analysis was used to correct for rundown of channel current and to determine percent inhibition as a function of drug concentration. IC50 were determined by fitting to the Hill equation.

[1] = human Nav1.7 stably expressed in 293 cells, whole-cell patch clamp, average IC50 from Hill fit

T1 sequence (Q15858 whole entry): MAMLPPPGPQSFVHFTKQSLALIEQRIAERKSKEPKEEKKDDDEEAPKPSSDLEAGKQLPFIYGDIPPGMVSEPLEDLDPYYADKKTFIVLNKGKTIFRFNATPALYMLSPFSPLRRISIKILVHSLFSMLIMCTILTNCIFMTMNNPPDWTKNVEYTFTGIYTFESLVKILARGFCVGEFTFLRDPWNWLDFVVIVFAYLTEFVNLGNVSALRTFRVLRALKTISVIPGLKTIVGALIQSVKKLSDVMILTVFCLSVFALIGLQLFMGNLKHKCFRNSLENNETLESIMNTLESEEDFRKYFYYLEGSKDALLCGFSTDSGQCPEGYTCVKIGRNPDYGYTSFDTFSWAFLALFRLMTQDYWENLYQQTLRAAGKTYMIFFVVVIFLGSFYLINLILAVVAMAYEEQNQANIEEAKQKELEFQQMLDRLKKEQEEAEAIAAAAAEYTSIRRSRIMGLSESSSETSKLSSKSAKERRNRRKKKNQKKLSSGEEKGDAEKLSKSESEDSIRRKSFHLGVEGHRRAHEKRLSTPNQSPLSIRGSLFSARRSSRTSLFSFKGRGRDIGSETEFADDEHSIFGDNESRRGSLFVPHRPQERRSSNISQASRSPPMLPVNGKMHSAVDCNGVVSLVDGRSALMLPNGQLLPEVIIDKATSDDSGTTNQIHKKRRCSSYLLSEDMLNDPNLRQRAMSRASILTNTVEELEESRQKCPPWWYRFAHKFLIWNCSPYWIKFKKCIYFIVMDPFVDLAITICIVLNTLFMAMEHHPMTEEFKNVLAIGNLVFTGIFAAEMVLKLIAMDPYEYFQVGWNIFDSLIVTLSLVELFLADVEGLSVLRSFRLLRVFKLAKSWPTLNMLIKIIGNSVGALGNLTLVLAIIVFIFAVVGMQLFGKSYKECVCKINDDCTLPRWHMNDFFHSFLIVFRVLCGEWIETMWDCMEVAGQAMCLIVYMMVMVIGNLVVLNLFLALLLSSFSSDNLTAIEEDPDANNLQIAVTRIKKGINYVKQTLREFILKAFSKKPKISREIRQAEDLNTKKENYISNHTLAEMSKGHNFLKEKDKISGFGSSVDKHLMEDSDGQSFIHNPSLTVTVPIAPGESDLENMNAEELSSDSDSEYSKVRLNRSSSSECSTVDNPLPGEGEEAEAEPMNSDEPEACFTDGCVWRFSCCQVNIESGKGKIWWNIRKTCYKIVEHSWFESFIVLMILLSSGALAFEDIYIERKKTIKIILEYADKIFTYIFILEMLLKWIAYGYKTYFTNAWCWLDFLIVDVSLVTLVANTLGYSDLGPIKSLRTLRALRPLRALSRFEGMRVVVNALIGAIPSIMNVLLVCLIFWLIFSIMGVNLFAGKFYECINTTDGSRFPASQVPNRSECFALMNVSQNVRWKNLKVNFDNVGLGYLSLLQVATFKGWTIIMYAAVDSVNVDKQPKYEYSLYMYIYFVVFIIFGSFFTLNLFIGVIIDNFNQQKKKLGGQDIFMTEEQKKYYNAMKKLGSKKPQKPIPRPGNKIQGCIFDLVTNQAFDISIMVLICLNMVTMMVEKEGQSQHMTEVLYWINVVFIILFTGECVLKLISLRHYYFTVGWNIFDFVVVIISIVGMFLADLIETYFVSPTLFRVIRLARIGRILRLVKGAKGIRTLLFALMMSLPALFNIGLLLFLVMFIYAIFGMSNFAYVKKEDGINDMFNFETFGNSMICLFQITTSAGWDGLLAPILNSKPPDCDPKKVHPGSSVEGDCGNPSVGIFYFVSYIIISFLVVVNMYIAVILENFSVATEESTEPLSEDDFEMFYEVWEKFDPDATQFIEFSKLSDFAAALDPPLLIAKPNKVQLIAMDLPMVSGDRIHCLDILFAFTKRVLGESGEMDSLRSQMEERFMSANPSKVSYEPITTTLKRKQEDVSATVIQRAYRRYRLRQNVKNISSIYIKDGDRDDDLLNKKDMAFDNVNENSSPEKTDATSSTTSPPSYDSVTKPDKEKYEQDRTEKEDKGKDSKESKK

Row | IC50 (average IC50, human Nav1.7) [µM] | Structure (SMILES) | also measured
1 | 1.26 | CNC(=O)c1cccc(Nc2ncnc(N3CCN(c4ccccc4C)CC3)n2)c1 [Example 89] | 
2 | 0.65 | CNC(=O)c1cccc(Nc2ncnc(N3CCC(Oc4cccc(F)c4)CC3)n2)c1 [Example 48] | 
3 | 4.56 | CNC(=O)c1cc(F)cc(Nc2ncnc(N3CC(COc4ccc(Cl)cc4)C3)n2)c1 [Example 173] | 
4 | 0.28 | CNC(=O)c1cc(Nc2ncnc(N3CC(Oc4ccc(Cl)cc4F)C3)n2)ccc1F [Example 14] | 
5 |  | CNC(=O)c1cccc(Nc2nccc(N3CC(Oc4ccc(F)cc4Cl)C3)n2)c1 [Example I, 3-((4-(3-(2-chloro-4-fluorophenoxy)-1-azetidinyl)-2-pyrimidinyl)amino)-N-methylbenzamide] | IC50 [1]: 0.63 µM
6 | 3.03 | CNC(=O)c1cccc(Nc2ncnc(N3CCC(OCc4ccc(C(F)(F)F)cc4)CC3)n2)c1 [Example 150] | 
7 | 2.16 | CNC(=O)c1cccc(Nc2ncnc(N3CCC(C#Cc4ccccc4)CC3)n2)c1 [Example 124] | 
8 | 1.06 | CNC(=O)c1cccc(Nc2ncnc(N3CCN(c4ccc(OC(F)(F)F)cc4)CC3)n2)c1 [Example 82] | 
9 | 7.03 | CNC(=O)c1cccc(Nc2ncnc(N3CC(COc4cccc(Cl)c4)C3)n2)c1 [Example 201] | 
10 |  | CNC(=O)c1cccc(Nc2cc(N3CC(Oc4ccc(Cl)cc4F)C3)ncn2)c1 [Example Z, 3-((6-(3-(4-chloro-2-fluorophenoxy)-1-azetidinyl)-4-pyrimidinyl)amino)-N-methylbenzamide] | IC50 [1]: 12.7 µM
11 | 0.81 | CNC(=O)c1cccc(Nc2ncnc(N3CC(Oc4ccc(F)cc4)C3)n2)c1 [Example 61] | 
12 | 1.32 | CNC(=O)c1cccc(Nc2ncnc(N3CC(OCc4ccc(OC(F)(F)F)cc4)C3)n2)c1 [Example 94] | 
13 | 0.9 | CNC(=O)c1cccc(Nc2ccnc(N3CC(Oc4ccc(F)cc4)C3)n2)c1 [Example 71] | 
14 | 0.57 | CNC(=O)c1cccc(Nc2ncnc(N3CC(Oc4ccc(C(C)C)cc4)C3)n2)c1 [Example 42] | 
15 |  | CNC(=O)c1cccc(Nc2ncnc(N3CC(Oc4ccc(Cl)cc4F)C3)n2)c1 [Example Q, 3-(4-(3-(4-chloro-2-fluorophenoxy)azetidin-1-yl)-1,3,5-triazin-2-ylamino)-N-methylbenzamide] | IC50 [1]: 2.99 µM
16 | 0.65 | CNC(=O)c1cccc(Nc2ncnc(N3CC(Oc4cccc(C)c4)C3)n2)c1 [Example 49] | 
17 | 2.8 | CNC(=O)c1cccc(Nc2ncnc(N3CCc4c(Cl)cccc4C3)n2)c1 [Example 142] | 
18 | 5.58 | CNC(=O)c1cccc(Nc2ncnc(N3CCC(n4cc(-c5ccccc5Cl)cn4)CC3)n2)c1 [Example 190] | 
19 | 8.96 | CNC(=O)c1cccc(Nc2ncnc(N3CCc4cc(OC)ccc4C3)n2)c1 [Example 222] | 
20 |  | CNC(=O)c1cccc(Nc2ncnc(N3CC(Oc4ccc(C5CCCC5)cc4)C3)n2)c1 [Example 264] | IC50 (average IC50): 18.9 µM
21 | 10.8 | CNC(=O)c1cccc(Nc2ncnc(N3CCC(OCc4cccc(C(F)(F)F)c4)CC3)n2)c1 [Example 239] | 
22 |  | Cc1c(Nc2ncnc(N3CCc4cc(Br)ccc4C3)n2)cccc1C(N)=O [Example 293] | IC50 (average IC50): > 30 µM
23 | 4.3 | CNC(=O)c1cccc(Nc2ncnc(N3CCC(c4ccc(C#N)cc4)CC3)n2)c1 [Example 170] | 

Row | IC50 (average IC50, human Nav1.7) [µM] | Structure (SMILES) | also measured
24 | 2.55 | CNC(=O)c1cccc(Nc2ncnc(N3CC=C(c4ccc(C)c(C)c4)CC3)n2)c1 [Example 133] | 
25 | 0.82 | CNC(=O)c1cccc(Nc2ncnc(N3CC(Oc4c(Cl)cccc4Cl)C3)n2)c1 [Example 63] | 
26 | 1.08 | CNC(=O)c1cccc(Nc2ncnc(N3CCC(Oc4ccc(Cl)c(F)c4)CC3)n2)c1 [Example 84] | 
27 | 0.43 | CNC(=O)c1cccc(Nc2nccc(N3CC(Oc4ccc(Cl)cc4)C3)n2)c1 [Example 30] | 
28 | 1.78 | CNC(=O)c1cc(F)cc(Nc2ncnc(N3CC(COc4ccc(C(F)(F)F)cc4)C3)n2)c1 [Example 112] | 
29 | 0.47 | CNC(=O)c1cccc(Nc2ncnc(N3CC(Oc4ccc(C(F)(F)F)cc4)C3)n2)c1 [Example 35] | 
30 |  | CNC(=O)c1cccc(Nc2nc(C)nc(N3CC(Oc4ccc(F)cc4)C3)n2)c1 [Example 284] | IC50 (average IC50): > 30 µM
31 |  | CNC(=O)c1cccc(Nc2ncnc(N3CC(C)(COc4ccccc4)C3)n2)c1 [Example 273] | IC50 (average IC50): 22.1 µM
32 | 1.4 | CNC(=O)c1cc(Nc2ncnc(N3CC(Oc4ccc(F)c(Cl)c4)C3)n2)ccc1Cl [Example 97] | 
33 | 12.9 | CNC(=O)c1cccc(Nc2ncnc(N3CCC(c4ccc(C#N)c(OC(F)(F)F)c4)CC3)n2)c1 [Example 248] | 
34 | 0.63 | CNC(=O)c1cccc(Nc2ncnc(N3CCC(Oc4ccccc4)CC3)n2)c1 [Example 45] | 
35 | 1.03 | CNC(=O)c1cccc(Nc2ncnc(N3CC(Oc4cccc(OC)c4)C3)n2)c1 [Example 80] | 
36 | 9.66 | CNC(=O)c1cccc(Nc2ncnc(N3CCC(c4nc(C(C)C)no4)CC3)n2)c1 [Example 231] | 
37 | 1.69 | CNC(=O)c1cccc(Nc2ncnc(N3CC(Oc4cccc(OC(F)(F)F)c4)C3)n2)c1 [Example 111] | 
38 | 2.9 | CNC(=O)c1cccc(Nc2ncnc(N3CCC(Oc4ccc(Cl)cc4)CC3)n2)c1 [Example 145] | 
39 | 12.5 | CNC(=O)c1cccc(Nc2ncnc(N3CCC(C#N)(c4ccc(F)cc4)CC3)n2)c1 [Example 245] | 
40 | 9.42 | CNC(=O)c1cccc(Nc2ncnc(N3CCC(OCc4ccc(F)c(F)c4)CC3)n2)c1 [Example 228] | 
41 |  | CNC(=O)c1cc(Nc2ncnc(N3CC(Oc4ccc(F)cc4)C3)n2)ccc1C [Example 266] | IC50 (average IC50): 19.7 µM
42 | 0.98 | CNC(=O)c1cccc(Nc2ncnc(N3CCc4cc(OCCC(F)(F)F)ccc4C3)n2)c1 [Example 77] | 
43 | 0.5 | COCCNC(=O)c1cccc(Nc2ncnc(N3CC(Oc4ccc(F)cc4)C3)n2)c1 [Example 38] | 
44 | 1.63 | CNC(=O)c1cccc(Nc2ncnc(N3CCN(CCc4ccccc4)CC3)n2)c1 [Example 109] | 
45 | 2.29 | CNC(=O)c1cccc(Nc2ncnc(N3CCN(S(=O)(=O)c4ccc(OC(F)(F)F)cc4)CC3)n2)c1 [Example 126] | 
46 | 9.31 | CNC(=O)c1cccc(Nc2ncnc(N3CCc4c(F)cccc4C3)n2)c1 [Example 225] | 

Row | IC50 (average IC50, human Nav1.7) [µM] | Structure (SMILES) | also measured
47 | 3.16 | CNC(=O)c1cccc(Nc2ncnc(N3CC(Oc4c(F)cc(Cl)cc4F)C3)n2)c1 [Example 153] | 
48 |  | CNC(=O)c1cccc(Nc2ncnc(N3CCC(OCc4cccc(OC(F)(F)F)c4)CC3)n2)c1 [Example 277] | IC50 (average IC50): 25.4 µM
49 |  | CNC(=O)c1cccc(Nc2cccc(N3CC(Oc4ccc(F)cc4)C3)c2)c1 [Example AF, 3-((3-(3-(4-fluorophenoxy)-1-azetidinyl)phenyl)amino)-N-methylbenzamide] | IC50 [1]: 9.53 µM
50 | 4.93 | CNC(=O)c1cccc(Nc2ncnc(N3CC(Oc4ccccc4OC(F)(F)F)C3)n2)c1 [Example 181] | 
51 | 17.7 | CNC(=O)c1cccc(Nc2ncnc(N3CCC(COCC4CC4)CC3)n2)c1 [Example 261] | 
52 | 5.44 | CNC(=O)c1cccc(Nc2ncnc(N3CC(COc4cccc(C(F)(F)F)c4)C3)n2)c1 [Example 188] | 
53 |  | CNC(=O)c1cccc(Nc2nccc(N3CC(Oc4ccc(Cl)c(Cl)c4)C3)n2)c1 [Example A, 3-(4-(3-(3,4-dichlorophenoxy)azetidin-1-yl)pyrimidin-2-ylamino)-N-methylbenzamide] | IC50 [1]: 0.78 µM
54 |  | CNC(=O)c1cccc(Nc2ncnc(N3CC(Oc4c(F)cccc4F)C3)n2)c1 [Example 274] | IC50 (average IC50): 22.1 µM
55 |  | CNC(=O)c1cccc(Nc2cccc(N3CC(Oc4ccc(Cl)cc4F)C3)n2)c1 [Example W, 3-((6-(3-(4-chloro-2-fluorophenoxy)-1-azetidinyl)-2-pyridinyl)amino)-N-methylbenzamide] | IC50 [1]: 2.78 µM
56 | 0.64 | COCCNC(=O)c1cccc(Nc2ncnc(N3CC(COc4ccc(Cl)cc4)C3)n2)c1 [Example 47] | 
57 | 15.2 | CNC(=O)c1cccc(Nc2ncnc(N3CC(COc4cccc5ccccc45)C3)n2)c1 [Example 253] | 
58 | 1.23 | CNC(=O)c1cccc(Nc2ncnc(N3CC(Oc4ccc(OC)cc4)C3)n2)c1 [Example 87] | 
59 | 3.82 | CNC(=O)c1ccc(F)c(Nc2ncnc(N3CC(Oc4ccc(F)cc4)C3)n2)c1 [Example 165] | 
60 | 16.7 | CNC(=O)c1cccc(Nc2ncnc(N3CC(Oc4cccc(C(F)(F)F)c4F)C3)n2)c1 [Example 256] | 
61 | 0.96 | CNC(=O)c1cccc(Nc2ncnc(N3CCN(c4ccc(C(F)(F)F)cc4)CC3)n2)c1 [Example 74] | 
62 | 2.31 | CNC(=O)c1cccc(Nc2ncnc(N3CC(Oc4ccc(C#N)c(Cl)c4)C3)n2)c1 [Example 128] | 
63 |  | CNC(=O)c1cccc(Nc2ncnc(N3CCc4c(cnn4-c4ccccc4)C3)n2)c1 [Example 268] | IC50 (average IC50): 20.9 µM
64 |  | Cc1ccc(N2CCN(c3ncnc(Nc4ccc(F)c(C(N)=O)c4)n3)CC2)cc1C [Example 295] | IC50 (average IC50): > 30 µM
65 | 2.79 | CNC(=O)c1cccc(Nc2ncnc(N3CC(Oc4ccccc4C(F)(F)F)C3)n2)c1 [Example 141] | 
66 |  | CCN1C(=O)C2(CCN(c3ncnc(Nc4cccc(C(=O)NC)c4)n3)CC2)c2ccccc21 [Example 290] | IC50 (average IC50): > 30 µM
67 | 5.43 | CNC(=O)c1cccc(Nc2ncnc(N3CC(Oc4cc(F)cc(F)c4)C3)n2)c1 [Example 187] | 
68 | 1.03 | CNC(=O)c1cccc(Nc2ncnc(N3CCN(c4cccc(C)c4C)CC3)n2)c1 [Example 81] | 
